Assay results: patent US20060282906A1, “Non-transgenic rodent model of Alzheimer's disease” (priority 2005, published 2006)

How the values were obtained:
Male Wistar rats [1] = assay: Immunohistochemistry of rat brain sections, grading scale of staining size and intensity; type: in vivo; parameters: key to NKκB(p65) immunostaining signal / COX-2 immunostaining signal / GFAP immunostaining signal / OX-6 immunostaining signal / APP immunostaining signal / Tau-2 immunostaining signal / TNFα immunostaining signal / Cas-3 immunostaining signal: n.s.: no positive staining; +: moderate immunostaining signal; ++: strong immunostaining signal; +++: strongest immunostaining signal
Procedure: (§3) All rats were anesthetized using 40 mg/kg of pentobarbital (Somnotol; MTC Pharmaceuticals, Cambridge, Ontario) intraperitoneally. Body temperature was maintained at 37° C. Aβ(25-35) (50 nmol in 10 μL of saline) was injected bilaterally into the lateral ventricles. Aβ(25-35) was prepared according to established methods (Sigurdsson, et al. (1997) supra). Aβ(25-35) (50 nmol in 10 μL of saline at a rate of 1 μL/minute) was injected bilaterally into the lateral ventricles via a stainless-steel cannula (23-gauge; anterior/posterior −0.8, medial/lateral ±1.4, and dorsal/ventral −4.0 below dura). Two endothelin injections (6 pmol in 3 μL of saline), 1 mm apart, were made into the right striatum (Sigurdsson, et al. (1997) supra). Sham procedures involved all the surgical steps without injections of Aβ(25-35) or endothelin. After wound suture, all rats received 40 mg/kg of buprenorphine intramuscularly and were allowed to recover from surgery for 7 days.
(§4) Twenty-one days after surgery, all animals were euthanized via pentobarbital overdose and perfused transaortically first with saline followed by 4% formaldehyde (pH 7.4). The brains were removed and cryoprotected in 30% sucrose for 36 hours at 4° C. Coronal sections (30 pm) were cut using a cryostat.
(§5) Free-floating sections from rat brains (n=5 for each group) were treated with 0.03% hydrogen peroxide and blocked with 3 mL of horse or rabbit serum (VECTASTAIN® Elite, Vector Laboratories, Burlingame, Calif.). The following primary antibodies were diluted in filtered phosphate-buffered saline: APPa4 mouse monoclonal (Chemicon International Inc, Temecula, Calif.; 1:1000), GFAP mouse monoclonal (Sigma-Aldrich, St Louis, Mo.; 1:1000), OX-6 mouse monoclonal (Serotec, Inc., Raleigh, N.C.; 1:1000), Tau-2 mouse monoclonal (Sigma-Aldrich, St Louis, Mo.; 1:10000), NFκB(p65) goat polyclonal (Santa Cruz Biotechnologies, Santa Cruz, Calif.; 1:1000), IL-1β goat polyclonal (Santa Cruz Biotechnologies, Santa Cruz, Calif.; 1:1000), and TNF-α-M18 goat polyclonal (Santa Cruz Biotechnologies, Santa Cruz, Calif.; 1:1000). APP-, Tau-2-, GFAP-, and OX-6-stained sections were incubated with 3 mL of horse biotinylated anti-mouse secondary antibody and horse serum. NFκB(p65), IL-1β, and TNF-α-stained sections were incubated with 3 mL of biotinylated rabbit anti-goat secondary antibody and rabbit serum. Sections were then incubated in 3 mL of avidin-biotin complex followed by 0.05% diaminobenzidine. Sections were washed, air-dried, cleared in xylene, and cover-slipped. Brains to be compared were processed at the same time using the same solutions to reduce variability in immunostaining caused by separate processing.
(§6) Digital photographs were taken using a light microscope (Leitz Diaplan). An investigator was blinded to the identification of the rat sections while analysis was being performed. All immunohistochemical data that were compared was processed at the same time to reduce any variation caused by differences of intensity. A grading scale was based on both observable size and intensity of staining (n=5 for each group). Also, relative optical density measurements and numbers of stained cells or accumulations were measured in entire brain areas for quantitative analysis and statistically analyzed with ANOVA and Tukey post hoc test with a significance level of P<0.05.

Male Wistar rats [2] = assay: Montoya staircase test; type: in vivo, rat; conditions: mean±SEM
Procedure: (§1) Male Wistar rats (250 to 300 grams; Charles River, Montreal, Quebec) were divided into 4 groups: intracerebroventricular injections of Aβ(25-35) (BACHEM, Torrance, Calif.); endothelin injections into the right striatum; both Aβ(25-35) and striatal endothelin injections; and sham procedures. The Aβ(25-35) fragment was used to reduce the possibility of rapid coagulation and to allow diffusion of the peptide into the brain.
(§2) All rats were anesthetized using 40 mg/kg of pentobarbital (Somnotol; MTC Pharmaceuticals, Cambridge, Ontario) intraperitoneally. Body temperature was maintained at 37° C. Aβ(25-35) (50 nmol in 10 μL of saline) was injected bilaterally into the lateral ventricles. Aβ(25-35) was prepared according to established methods (Sigurdsson, et al. (1997) supra). Aβ(25-35) (50 nmol in 10 μL of saline at a rate of 1 μL/minute) was injected bilaterally into the lateral ventricles via a stainless-steel cannula (23-gauge; anterior/posterior −0.8, medial/lateral ±1.4, and dorsal/ventral −4.0 below dura). Two endothelin injections (6 pmol in 3 μL of saline), 1 mm apart, were made into the right striatum (Sigurdsson, et al. (1997) supra). Sham procedures involved all the surgical steps without injections of Aβ(25-35) or endothelin. After wound suture, all rats received […] of buprenorphine intramuscularly and were allowed to recover from surgery for 7 days.
For training (n=10 for each group), rats were placed into the Montoya staircase apparatus (Montoya, et al. (1991) supra) at the same time every day for 8 days (days −8 through −1) and were allowed to perform the test for 20 minutes. Rats were food-deprived for 1 day (day −9) before testing, as well as on day −8. On days −7 though −1, rats were fed 10 grams of their normal chow so that they maintained their body weight at ˜85%. Three NOYES LAB ANIMAL PRECISION FOOD PELLETS™ (Research Diets, Inc., New Brunswick, N.J.) were placed in each of the 14 wells (7 on each side). Pellets eaten were recorded from each well. Re-testing trials, which were performed 7 days after the surgical procedures (day 0), were performed for 8 days in the same way as the training trials (days 8 through 15).
Digital photographs were taken using a light microscope (Leitz Diaplan). An investigator was blinded to the identification of the rat sections while analysis was being performed. […] Also, relative optical density measurements and numbers of stained cells or accumulations were measured in entire brain areas for quantitative analysis and statistically analyzed with ANOVA and Tukey post hoc test with a significance level of P<0.05. […] The staircase data are expressed as the mean±SEM. […] Data are expressed as mean±SEM. […]

Male Wistar rats [3] = assay: Congo Red histochemistry of rat brain sections; type: in vivo; conditions: Aβ: lesions in fornix, anterior hippocampus, CA1 hippocampus; endothelin: infarct
Procedure: as §1
as §2, with “days. […]” for “days.”

Male Wistar rats [4] = assay: Quantitative immunohistochemistry: relative optical density and numbers of stained cells or accumulations; type: in vivo, rat; conditions: for APP Accumulation / GFAP Intensity / OX6 Intensity: vehicle (not in brackets), mean ± SEM, n = 4
Procedure: as §3, §4, §5, §6

`CC[C@H](C)[C@H](NC(=O)[C@H](CC(=O)O)NC(=O)[C@H](CC(C)C)NC(=O)[C@H](Cc1c[nH]cn1)NC(=O)[C@@H]1CSSC[C@H](N)C(=O)N[C@@H](CO)C(=O)N[C@H]2CSSC[C@H](NC(=O)[C@H](CCC(=O)O)NC(=O)[C@H](CCCCN)NC(=O)[C@H](CC(=O)O)NC(=O)[C@H](CCSC)NC(=O)[C@H](CC(C)C)NC(=O)[C@H](CO)NC(=O)[C@H](CO)NC2=O)C(=O)N[C@@H](C(C)C)C(=O)N[C@@H](Cc2ccc(O)cc2)C(=O)N[C@@H](Cc2ccccc2)C(=O)N1)C(=O)N[C@H](C(=O)N[C@@H](Cc1c[nH]c2ccccc12)C(=O)O)[C@@H](C)CC` [Endothelin] was tested, and the APP immunostaining signal (Male Wistar rats [1]; Corpus Callosum) was “n.s”, the COX-2 immunostaining signal (Male Wistar rats [1]; Corpus Callosum) was “n.s” and the GFAP immunostaining signal (Male Wistar rats [1]; Corpus Callosum) was “+”. For the same molecule, the “NKκB(p65) immunostaining signal” value (Male Wistar rats [1]; Corpus Callosum) was “n.s”, the OX-6 immunostaining signal (Male Wistar rats [1]; Corpus Callosum) was “n.s” and the TNFα immunostaining signal (Male Wistar rats [1]; Corpus Callosum) was “n.s”. For the same molecule, the Tau-2 immunostaining signal (Male Wistar rats [1]; Corpus Callosum) was “n.s”, the APP immunostaining signal (Male Wistar rats [1]; Cortex) was “n.s” and the COX-2 immunostaining signal (Male Wistar rats [1]; Cortex) was “n.s”. For the same molecule, the GFAP immunostaining signal (Male Wistar rats [1]; Cortex) was “+”, the “NKκB(p65) immunostaining signal” value (Male Wistar rats [1]; Cortex) was “n.s” and the OX-6 immunostaining signal (Male Wistar rats [1]; Cortex) was “n.s”. The TNFα immunostaining signal (Male Wistar rats [1]; Cortex) was “n.s”, the Tau-2 immunostaining signal (Male Wistar rats [1]; Cortex) was “n.s” and the APP immunostaining signal (Male Wistar rats [1]; Hippocampus) was “n.s”. The COX-2 immunostaining signal (Male Wistar rats [1]; Hippocampus) was “n.s”, the GFAP immunostaining signal (Male Wistar rats [1]; Hippocampus) was “+” and the “NKκB(p65) immunostaining signal” value (Male Wistar rats [1]; Hippocampus) was “n.s”. For the same molecule, the OX-6 immunostaining signal (Male Wistar rats [1]; Hippocampus) was “n.s”, the Tau-2 immunostaining signal (Male Wistar rats [1]; Hippocampus) was “n.s” and the APP immunostaining signal (Male Wistar rats [1]; Hypothalamus) was “n.s”. For the same molecule, the “NKκB(p65) immunostaining signal” value (Male Wistar rats [1]; Hypothalamus) was “n.s”, the TNFα immunostaining signal (Male Wistar rats [1]; Hypothalamus) was “n.s” and the APP immunostaining signal (Male Wistar rats [1]; Striatum (right)) was “+”. For the same molecule, the COX-2 immunostaining signal (Male Wistar rats [1]; Striatum (right)) was “+”, the Cas-3 immunostaining signal (Male Wistar rats [1]; Striatum (right)) was “+” and the GFAP immunostaining signal (Male Wistar rats [1]; Striatum (right)) was “++”. For the same molecule, the “NKκB(p65) immunostaining signal” value (Male Wistar rats [1]; Striatum (right)) was “+”, the OX-6 immunostaining signal (Male Wistar rats [1]; Striatum (right)) was “++” and the TNFα immunostaining signal (Male Wistar rats [1]; Striatum (right)) was “+”. The OX-6 immunostaining signal (Male Wistar rats [1]; Thalamus (right)) was “+”, the TNFα immunostaining signal (Male Wistar rats [1]; Thalamus (right)) was “+” and the Tau-2 immunostaining (Male Wistar rats [1]; region of ischemic damage (right striatum)) was “Increases”. For the same molecule, the IL-1β immunostaining (Male Wistar rats [1]; region of the infarct, punctate appearance) was “Increases”, the “Staircase test performance, contralateral paw” value (Male Wistar rats [2]; day 8 (first day of re-testing)) was 66±15 % of pretreatment and the “Staircase test performance, ipsilateral paw” value (Male Wistar rats [2]; during the post-treatment phase) was 143±18 % of pretreatment. The “Congo Red staining” value (Male Wistar rats [3]) was “stained positively for Congo Red”, the “average numbers of OX-6-stained microglia” value (Male Wistar rats [4]; CA1 of the hippocampus) was 4.8±0.9 and the “Average intensity measurements for GFAP” value (Male Wistar rats [4]; Hippocampus) was 152.9±11.0. The “APP Accumulation” value (Male Wistar rats [4]; Left Cortex) was 7.4 ± 1.4, the “GFAP Intensity” value (Male Wistar rats [4]; Left Hippocampus) was 152.1 ± 4.1 and the “OX6 Intensity” value (Male Wistar rats [4]; Left Hippocampus) was 104.2 ± 3.5. For the same molecule, the “APP Accumulation” value (Male Wistar rats [4]; Right Cortex) was 13.8 ± 1.9, the “GFAP Intensity” value (Male Wistar rats [4]; Right Hippocampus) was 166.0 ± 3.8 and the “OX6 Intensity” value (Male Wistar rats [4]; Right Hippocampus) was 116.2 ± 2.9.
